Assay results reported in US8592172B2, “Bioluminescent assays using cyanobenzothiazole compounds” (Promega Corporation, priority 2010, dated 2013).

Columns and labels:
[1] = system: CYP450 1A2 activity in human liver microsomes; assay: Human liver microsome assay with compound 3019; settings: 1 μg HLM, 3 μM compound 3019, 10 minutes at 37° C.
Method: Equal volumes of P450-Glo LDR with 6.6 mM D-Cysteine was added into the CYP450 reactions.

GST M1-1 = biological target: T1, GST M1-1 (Homo sapiens, UniProt P09488); assay: Utilization of benzothiazole substrate by GST M1-1; assay type: biochemical; settings: 55 minutes at room temperature
T1 sequence (P09488 2-218 limits assumed): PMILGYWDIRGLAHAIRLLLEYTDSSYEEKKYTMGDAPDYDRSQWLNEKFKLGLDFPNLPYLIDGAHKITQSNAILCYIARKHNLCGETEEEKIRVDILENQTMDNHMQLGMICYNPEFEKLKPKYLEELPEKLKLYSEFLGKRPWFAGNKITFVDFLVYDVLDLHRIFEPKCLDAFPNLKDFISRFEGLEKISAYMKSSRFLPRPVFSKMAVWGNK
Method: (§1) Compound 934-37 was dissolved in DMSO to produce a solution approximately 1 mg/mL. This solution was diluted 1:100 (v/v) into 50 mM HEPES buffer pH 7.5 to produce a substrate solution (approximately 10 μg/ml). Twenty μL of this solution was placed in 10 wells of a 96 well, white luminometer plate (Promega part Z3291), 20 μL of a 1:3.1 dilution of the substrate (approximately 3.2 μg/ml) was placed into another 10 wells in the luminometer plate.
(§2) D-Cysteine, 4 mg (Sigma Chemical Corp.; C8005-1g, 017K1034) was dissolved into 1 mL of 50 mM HEPES buffer pH 7.5, then 4 μL added to 4 of the wells containing the substrate solution and 4 of the wells with diluted substrate solution to convert compound 934-37 to the corresponding luciferin derivative. The structures of these compounds are shown below.
A sample of GST M1-1 (1.2 mg/mL) and 100 μL of 100 mM glutathione was diluted into 5 mL of 50 mM HEPES pH 7.5, then 25 μL added to: two of the wells with unconverted, concentrated compound 934-37; 2 wells with concentrated and converted compound 934-37; and two of the wells with unconverted, diluted compound 934-37 and 2 of the wells with converted, diluted compound 934-37.
(§3) Glutathione (100 μL of 100 mM glutathione) had been diluted to 5 mL with 50 mM HEPES buffer pH 7.5, then 25 μL added to the remaining wells of converted and unconverted compound 934-37 in concentrated and diluted solution.
(§4) After 55 minutes at room temperature, 4 μL of the D-cysteine solution above was added to all wells that had not received cysteine before, then 50 μL of P450-Glo LDR was added. The plate was then placed into a GloMax luminometer (Promega Corp.), and the bioluminescence measured after 15 minutes of incubation. The values obtained were averaged, and the average value of the bioluminescence produced from the wells with no enzyme were then subtracted from the average of the bioluminescence produced in the wells with enzyme.

[2] = biological target: T2, glutathione S-transferase isoenzyme A1-1 (GST A1-1) (Homo sapiens, UniProt P08263); assay: Utilization of benzothiazole substrate by GST A1-1; assay type: biochemical; settings: 55 minutes at room temperature
T2 sequence (P08263 1-222): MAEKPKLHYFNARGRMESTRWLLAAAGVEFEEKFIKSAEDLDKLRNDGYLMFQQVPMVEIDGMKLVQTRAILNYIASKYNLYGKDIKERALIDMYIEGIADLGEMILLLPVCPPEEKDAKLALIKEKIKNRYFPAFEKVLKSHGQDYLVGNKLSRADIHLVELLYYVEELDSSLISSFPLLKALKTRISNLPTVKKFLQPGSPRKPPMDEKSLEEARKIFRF
Method: as §1, §2
A sample of glutathione S-transferase isoenzyme A1-1 (GST A1-1) (1.2 mg/mL) and 100 μL of 100 mM glutathione in water was diluted into 5 mL of 50 mM HEPES pH 7.5, then 25 μL added to the plate as follows: 2 wells with unconverted, concentrated compound 934-37; 2 wells with concentrated and converted compound 934-37; 2 wells with unconverted, diluted compound 934-37; and 2 of the wells with converted, diluted compound 934-37.
as §3, §4

UGT 2B7 = UGT 2B7 (Homo sapiens, UniProt P16662); assay: Recombinant UGT panel, substrate utilization; assay type: biochemical; parameters: purchased BD Gentest; host or cells: insect cells (microsomes); settings: 2 hour incubation at 37° C., recombinant Supersomes, background corrected
Sequence of UGT 2B7 (P16662 24-529): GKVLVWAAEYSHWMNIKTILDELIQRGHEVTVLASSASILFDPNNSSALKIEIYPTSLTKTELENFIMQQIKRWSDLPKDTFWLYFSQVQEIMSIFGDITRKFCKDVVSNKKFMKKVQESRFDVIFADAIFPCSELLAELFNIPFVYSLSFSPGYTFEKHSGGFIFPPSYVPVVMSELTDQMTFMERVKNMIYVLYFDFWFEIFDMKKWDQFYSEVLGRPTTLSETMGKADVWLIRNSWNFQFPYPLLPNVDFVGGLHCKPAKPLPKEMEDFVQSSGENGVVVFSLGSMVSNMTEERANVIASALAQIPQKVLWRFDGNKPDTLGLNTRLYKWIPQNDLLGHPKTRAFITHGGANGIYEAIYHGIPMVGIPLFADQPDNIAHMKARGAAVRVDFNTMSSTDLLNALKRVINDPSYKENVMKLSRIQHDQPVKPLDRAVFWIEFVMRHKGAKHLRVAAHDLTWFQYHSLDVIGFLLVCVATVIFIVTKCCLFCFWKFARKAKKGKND
Method: (§5) During this incubation, the cysteine reacts with the cyanobenzathiozole substrate to yield a D-luciferin derivative. […] Therefore, activity of the UGT enzyme can be measured by analyzing the difference (lower or no output) in relative light units (RLU) of a sample in which glucuronidation occurs compared to a sample that was run under the same conditions with no added UDPGA cofactor.
(§6) In this example, a series of 12 recombinant UGTs expressed in insect microsomes (Supersomes™, BD Gentest™), as well as the control microsomes not expressing the UGT enzyme, were incubated with compound 3138, compound 3478, or compound 3165 as substrates, with or without the UDPGA co-factor.
(§7) After addition of a luciferin detection reagent (LDR) containing D-cysteine, both the substrate and the product were converted to D-luciferins (compound 3478 is already a luciferin derivative before addition of the LDR).
Reactions were assembled in a white, 96-well plate. Each well contained 20 μL of reaction mixture comprised of 100 mM TES, pH 7.5, 16 mM MgCl2, 50 μg/mL alamethicin (Sigma), 60 μM compound 3138 or compound 3478, and 0.4 mg/mL of control or recombinant UGT membranes. The reactions were initiated by addition of 20 μL of water or 8 mM triammonium UDPGA (Sigma) to each well. […] After the incubation was completed, the plate was read on a Veritas™ luminometer (Turner BioSystems, Inc.; Sunnyvale, Calif.). […]

UGT 1A8 = biological target: T3, UGT 1A8 (Homo sapiens, UniProt Q9HAW9); assay: Recombinant UGT panel, substrate utilization; assay type: biochemical; settings: 2 hour incubation at 37° C., recombinant Supersomes, background corrected
T3 construct: purchased BD Gentest; host or cells: insect cells (microsomes)
T3 sequence (Q9HAW9 26-530): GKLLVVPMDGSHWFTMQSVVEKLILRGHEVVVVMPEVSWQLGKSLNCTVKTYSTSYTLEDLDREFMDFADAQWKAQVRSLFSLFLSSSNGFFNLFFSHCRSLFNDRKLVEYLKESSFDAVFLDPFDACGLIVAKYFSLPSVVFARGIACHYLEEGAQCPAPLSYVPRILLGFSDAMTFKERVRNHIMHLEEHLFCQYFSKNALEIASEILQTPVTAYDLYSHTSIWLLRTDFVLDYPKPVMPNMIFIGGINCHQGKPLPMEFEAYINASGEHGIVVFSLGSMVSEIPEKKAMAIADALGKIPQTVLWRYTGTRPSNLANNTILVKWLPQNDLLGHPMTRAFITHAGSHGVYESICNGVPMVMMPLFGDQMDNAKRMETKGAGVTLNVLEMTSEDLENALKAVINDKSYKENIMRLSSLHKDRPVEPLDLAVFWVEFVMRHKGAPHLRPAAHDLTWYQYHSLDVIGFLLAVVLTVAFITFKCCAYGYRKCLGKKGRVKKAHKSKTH
Method: as §5, §6, §7
(§8) Reactions were assembled in a white, 96-well plate. Each well contained 20 μL of reaction mixture comprised of 100 mM TES, pH 7.5, 16 mM MgCl2, 50 μg/mL alamethicin (Sigma), 60 μM compound 3138 or compound 3478, and 0.4 mg/mL of control or recombinant UGT membranes. The reactions were initiated by addition of 20 μL of water or 8 mM triammonium UDPGA (Sigma) to each well. The plate was mixed, sealed, and incubated in a 37° C. water bath for 2 hours. After the incubation, 40 μL P450-Glo LDR (Promega) with 20 mM D-cysteine-HCl.H2O (Sigma) was added to each well, the plate was mixed and allowed to incubate at room temperature for 20 minutes. After the incubation was completed, the plate was read on a Veritas™ luminometer (Turner BioSystems, Inc.; Sunnyvale, Calif.).
(§9) For each isozyme, the bioluminescence from the replicates containing UDPGA were subtracted from the average bioluminescence of the replicates without UDPGA. The average Δ RLU value obtained and the standard deviation of the replicates were then divided by the average bioluminescence for samples without UDPGA to obtain the % utilization for each isozyme. The % utilization obtained from the control microsomes was then subtracted from each isozyme to give the background corrected utilization data for those isozymes.

UGT 2B4 = biological target: T4, UGT 2B4 (Homo sapiens, UniProt P06133); assay: Recombinant UGT panel, substrate utilization; assay type: biochemical; settings: 2 hour incubation at 37° C., recombinant Supersomes
T4 construct: purchased BD Gentest; host or cells: insect cells (microsomes)
T4 sequence (P06133 24-528): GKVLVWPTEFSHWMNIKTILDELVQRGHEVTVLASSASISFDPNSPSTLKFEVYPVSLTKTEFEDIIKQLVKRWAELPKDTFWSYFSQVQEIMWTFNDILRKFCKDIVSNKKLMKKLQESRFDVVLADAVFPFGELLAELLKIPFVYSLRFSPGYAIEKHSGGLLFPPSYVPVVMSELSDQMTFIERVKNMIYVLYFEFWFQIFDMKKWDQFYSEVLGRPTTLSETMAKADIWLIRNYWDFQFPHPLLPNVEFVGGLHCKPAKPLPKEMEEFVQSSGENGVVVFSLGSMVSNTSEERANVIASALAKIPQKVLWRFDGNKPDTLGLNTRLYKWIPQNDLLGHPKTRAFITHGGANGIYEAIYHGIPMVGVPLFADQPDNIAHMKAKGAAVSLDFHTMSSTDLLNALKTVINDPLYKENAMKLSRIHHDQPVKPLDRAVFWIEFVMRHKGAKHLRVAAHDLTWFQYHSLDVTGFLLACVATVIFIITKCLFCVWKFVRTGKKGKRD
Method: as §5, §6, §7, §8, §9

UGT 1A1 = biological target: T5, UGT 1A1 (Homo sapiens, UniProt P22309); assay: Recombinant UGT panel, substrate utilization; assay type: biochemical; settings: 2 hour incubation at 37° C., recombinant Supersomes, background corrected
T5 construct: purchased BD Gentest; host or cells: insect cells (microsomes)
T5 sequence (P22309 26-533): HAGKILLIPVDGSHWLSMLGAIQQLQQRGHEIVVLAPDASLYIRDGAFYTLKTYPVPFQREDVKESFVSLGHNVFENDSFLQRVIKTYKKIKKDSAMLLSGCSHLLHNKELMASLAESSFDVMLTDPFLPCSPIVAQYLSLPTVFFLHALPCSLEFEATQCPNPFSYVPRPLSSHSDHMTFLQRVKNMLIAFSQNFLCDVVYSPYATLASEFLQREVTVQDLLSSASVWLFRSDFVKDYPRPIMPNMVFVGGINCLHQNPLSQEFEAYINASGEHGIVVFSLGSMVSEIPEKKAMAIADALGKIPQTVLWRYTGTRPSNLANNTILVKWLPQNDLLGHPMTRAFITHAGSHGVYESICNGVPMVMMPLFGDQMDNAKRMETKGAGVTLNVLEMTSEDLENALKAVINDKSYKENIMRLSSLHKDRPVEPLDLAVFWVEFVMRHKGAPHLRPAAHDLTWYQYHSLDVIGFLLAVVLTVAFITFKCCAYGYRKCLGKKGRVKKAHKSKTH
Method: as §5, §6, §7, §8, §9

UGT 1A4 = biological target: T6, UGT 1A4 (Homo sapiens, UniProt P22310); assay: Recombinant UGT panel, substrate utilization; assay type: biochemical; settings: 2 hour incubation at 37° C., recombinant Supersomes
T6 construct: purchased BD Gentest; host or cells: insect cells (microsomes)
T6 sequence (P22310 29-534): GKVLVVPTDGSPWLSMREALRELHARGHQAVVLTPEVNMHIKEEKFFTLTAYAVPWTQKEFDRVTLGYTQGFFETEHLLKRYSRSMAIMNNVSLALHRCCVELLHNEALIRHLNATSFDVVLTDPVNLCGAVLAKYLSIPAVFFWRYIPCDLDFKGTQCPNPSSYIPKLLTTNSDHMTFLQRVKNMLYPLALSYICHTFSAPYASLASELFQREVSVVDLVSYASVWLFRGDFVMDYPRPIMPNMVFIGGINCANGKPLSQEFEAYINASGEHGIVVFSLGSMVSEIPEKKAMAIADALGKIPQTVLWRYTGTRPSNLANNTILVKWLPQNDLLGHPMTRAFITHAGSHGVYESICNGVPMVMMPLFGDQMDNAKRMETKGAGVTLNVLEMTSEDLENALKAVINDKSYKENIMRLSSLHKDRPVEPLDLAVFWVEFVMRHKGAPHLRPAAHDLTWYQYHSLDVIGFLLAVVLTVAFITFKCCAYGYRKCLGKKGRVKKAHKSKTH
Method: as §5, §6, §7, §8, §9

UGT 1A6 = biological target: T7, UGT 1A6 (Homo sapiens, UniProt P19224); assay: Recombinant UGT panel, substrate utilization; assay type: biochemical; settings: 2 hour incubation at 37° C., recombinant Supersomes
T7 construct: purchased BD Gentest; host or cells: insect cells (microsomes)
T7 sequence (P19224 27-532): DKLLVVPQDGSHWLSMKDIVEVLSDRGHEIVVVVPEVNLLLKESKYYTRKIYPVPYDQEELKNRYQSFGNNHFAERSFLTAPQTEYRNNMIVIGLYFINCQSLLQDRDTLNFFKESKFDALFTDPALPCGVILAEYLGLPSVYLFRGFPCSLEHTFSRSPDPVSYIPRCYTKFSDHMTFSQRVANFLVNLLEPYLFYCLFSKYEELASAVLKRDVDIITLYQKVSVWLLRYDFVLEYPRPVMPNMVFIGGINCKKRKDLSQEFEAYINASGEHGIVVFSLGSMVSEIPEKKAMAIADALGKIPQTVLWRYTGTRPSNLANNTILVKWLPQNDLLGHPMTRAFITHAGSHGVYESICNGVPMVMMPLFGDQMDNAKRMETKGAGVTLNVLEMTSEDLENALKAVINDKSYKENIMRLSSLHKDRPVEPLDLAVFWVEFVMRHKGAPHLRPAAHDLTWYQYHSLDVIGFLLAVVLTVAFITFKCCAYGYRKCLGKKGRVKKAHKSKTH
Method: as §5, §6, §7, §8, §9

UGT 1A9 = biological target: T8, UGT 1A9 (Homo sapiens, UniProt O60656); assay: Recombinant UGT panel, substrate utilization; assay type: biochemical; settings: 2 hour incubation at 37° C., recombinant Supersomes, background corrected
T8 construct: purchased BD Gentest; host or cells: insect cells (microsomes)
T8 sequence (O60656 26-530): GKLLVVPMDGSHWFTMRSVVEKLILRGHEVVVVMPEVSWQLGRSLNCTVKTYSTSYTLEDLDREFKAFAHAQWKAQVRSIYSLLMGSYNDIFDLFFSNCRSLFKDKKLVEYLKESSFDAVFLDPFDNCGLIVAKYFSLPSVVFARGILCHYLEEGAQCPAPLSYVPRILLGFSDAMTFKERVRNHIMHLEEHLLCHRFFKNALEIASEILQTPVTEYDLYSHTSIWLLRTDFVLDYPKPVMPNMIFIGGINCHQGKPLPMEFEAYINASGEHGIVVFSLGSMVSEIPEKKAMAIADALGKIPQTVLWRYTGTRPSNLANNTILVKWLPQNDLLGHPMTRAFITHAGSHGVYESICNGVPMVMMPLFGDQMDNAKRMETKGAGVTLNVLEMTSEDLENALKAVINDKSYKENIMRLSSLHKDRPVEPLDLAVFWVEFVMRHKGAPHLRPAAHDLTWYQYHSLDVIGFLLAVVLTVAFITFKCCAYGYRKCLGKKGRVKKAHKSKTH
Method: as §5, §6, §7, §8, §9

UGT 1A10 = biological target: T9, UGT 1A10 (Homo sapiens, UniProt Q9HAW8); assay: Recombinant UGT panel, substrate utilization; assay type: biochemical; settings: 2 hour incubation at 37° C., recombinant Supersomes, background corrected
T9 construct: purchased BD Gentest; host or cells: insect cells (microsomes)
T9 sequence (Q9HAW8 26-530): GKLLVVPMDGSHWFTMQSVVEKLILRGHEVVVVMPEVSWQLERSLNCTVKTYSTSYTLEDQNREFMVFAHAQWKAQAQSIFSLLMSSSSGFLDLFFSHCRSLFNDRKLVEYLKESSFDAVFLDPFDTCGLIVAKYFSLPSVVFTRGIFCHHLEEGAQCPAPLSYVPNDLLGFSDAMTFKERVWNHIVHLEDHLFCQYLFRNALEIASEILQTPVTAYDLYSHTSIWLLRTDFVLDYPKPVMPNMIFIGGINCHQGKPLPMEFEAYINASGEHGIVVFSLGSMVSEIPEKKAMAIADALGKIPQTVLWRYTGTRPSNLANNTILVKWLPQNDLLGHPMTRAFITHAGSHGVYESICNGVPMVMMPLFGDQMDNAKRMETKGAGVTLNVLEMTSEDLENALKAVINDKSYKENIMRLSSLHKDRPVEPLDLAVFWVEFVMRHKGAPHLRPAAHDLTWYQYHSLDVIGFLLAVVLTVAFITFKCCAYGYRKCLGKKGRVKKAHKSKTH
Method: as §5, §6, §7, §8, §9

UGT isozymes = UGT isozymes currently reported in the literature; cited from earlier work
[3] = concentrated substrate (approximately 10 μg/ml)
[4] = diluted substrate (approximately 3.2 μg/ml)

O=c1cc(-c2ccccc2)oc2c1ccc1ccccc12 [α-naphthoflavone, reference compound]
inhibition of compound 3019 activity in human liver microsomes [1]: sensitive to inhibition

Cc1cc(S(=O)(=O)Oc2ccc3nc(C4=N[C@@H](C(=O)O)CS4)sc3c2)ccc1[N+](=O)[O-] [converted compound 934-37]
bioluminescence with GST M1-1 minus no enzyme (GST M1-1; [3]): 315,759 RLU | bioluminescence with GST M1-1 minus no enzyme (GST M1-1; [4]): 213,920 RLU | bioluminescence with GST A1-1 minus no enzyme [2, 3]: 6,410 RLU | bioluminescence with GST A1-1 minus no enzyme [2, 4]: 6,462 RLU

Cc1cc(O)cc2sc(C3=NC(C(=O)O)CS3)nc12 (centres unmarked) [Compound 3478]
% utilization of substrate by UGT 2B7 (UGT 2B7): ≤ 15% | % utilization of substrate by UGT 1A8 (UGT 1A8): ≤ 15% | utilization of substrate by UGT 2B4 (UGT 2B4): did not utilize either compound 3138 or 3478 to an appreciable extent | % utilization of substrate by UGT 1A1 (UGT 1A1): ≤ 15% | utilization of substrate by UGT 1A4 (UGT 1A4): did not utilize either compound 3138 or 3478 to an appreciable extent | utilization of substrate by UGT 1A6 (UGT 1A6): able to utilize compound 3478 to any appreciable extent | % utilization of substrate by UGT 1A9 (UGT 1A9): ≤ 15% | % utilization of substrate by UGT 1A10 (UGT 1A10): ≤ 15%

O=c1ccc2ccc(O)cc2o1 [Umbelliferne]
Isozymes Modulated (UGT isozymes): Substrate of most isozymes

O=c1cc(C(F)(F)F)c2ccc(O)cc2o1 [7-hydroxy-4-trifluoromethyl coumarin]
Isozymes Modulated (UGT isozymes): Substrate for 1A1, 1A3, 1A6, 1A9, 2B7

C=C[C@H]1C[N@@]2CC[C@H]1C[C@@H]2[C@@H](O)c1ccnc2ccc(OC)cc12 [Quinidine]
Isozymes Modulated (UGT isozymes): 2B7 and 2B15, others to a lesser extent

Cc1cc(S(=O)(=O)Oc2ccc3nc(C#N)sc3c2)ccc1[N+](=O)[O-] [Compound 934-37]
bioluminescence with GST M1-1 minus no enzyme (GST M1-1; [3]): 41,212 RLU | bioluminescence with GST M1-1 minus no enzyme (GST M1-1; [4]): 30,428 RLU | bioluminescence with GST A1-1 minus no enzyme [2, 3]: 164,400 RLU | bioluminescence with GST A1-1 minus no enzyme [2, 4]: 195,021 RLU
